Measurements taken from US4965250A, “Peptide compounds having a nitrogenous polycyclic structure” (Adir ET CIE, priority 1987, dated 1990).

Test system: polynuclear leukocytes present in the whole blood of dogs
Assay type: cell-based
Procedure: The compounds according to the invention were tested for their capacity to increase non-specific phagocytosis. This test consists in measuring, after treatment by flow cytometry, the capacity of the polynuclear leukocytes present in the whole blood of dogs to phagocytose latex beads 1.8 μm in diameter, on the one hand in the absence (control) and on the other hand in the presence of a compound of the invention.

Compound: C[C@H]1OC(=O)N[C@@H]1C(=O)N[C@@H](CCCCN)C(=O)N1C2CCC(CC2)[C@H]1C(=O)N[C@@H](CCCNC(=N)N)C(=O)O [Example 1, Cyclo(S)Thr-(S)Lys-(S)ABO-(S)Arg-OH]
- increase relative to the control of the capacity of the polynuclear leukocytes for non-specific phagocytosis: 19%
